Values quoted from earlier work in article PMC5487684, “Safety, Pharmacokinetics, and Antiviral Activity of a Novel HIV Antiviral, ABX464, in Treatment-Naive HIV-Infected Subjects in a Phase 2 Randomized, Controlled Study” (Antimicrobial Agents and Chemotherapy, 2017).

System: HIV replication in macrophages
Design: method as in PMID 25889234
Settings: in vitro; cited from earlier work

For FC(F)(F)Oc1ccc(Nc2ccc3cccc(Cl)c3n2)cc1 [ABX464], the “Inhibition of HIV replication in macrophage culture” value is given as “can inhibit HIV replication”.
